Source: patent US7115608B2, “Pyridinone and pyridinethione derivatives having HIV inhibiting properties” (Centre National de la Recherche Schentifique, priority 2000, dated 2006)

How the values were obtained:
[1] = test system: HIV-1; details: for IC50: dose achieving 50% protection of HIV-infected MT-4 cells, MTT, OD 540 nm; for SI: selectivity index, ratio of CC50 to IC50
Method: A rapid, sensitive and automated assay procedure was used for the in vitro evaluation of anti-HIV agents. […] Inhibition of the HIV-induced cytopathic effect was used as the end point. The viability of both HIV- and mock-infected cells was assessed spectrophotometrically via the in situ reduction of 3-(4,5-dimethylthiazol-2-yl)-2,5-diphenyltetrazolium bromide (MTT). […] The percent protection achieved by the compound in HIV-infected cells was calculated by the following formula:
[formula] expressed in %, whereby (ODT)HIV is the optical density measured with a given concentration of the test compound in HIV-infected cells; (ODC)HIV is the optical density measured for the control untreated HIV-infected cells; (ODC)MOCK is the optical density measured for the control untreated mock-infected cells; all optical density values were determined at 540 nm. […] The ratio of CC50 to IC50 was defined as the selectivity index (SI).

[2] = test system: mock-infected MT-4 cells; assay: Cytotoxicity in mock-infected MT-4 cells (MTT); assay type: cell-based; details: concentration reducing absorbance of mock-infected MT-4 control by 50%

CCc1c(C)[nH]c(=O)c(I)c1Oc1ccccc1 [compound 328]
IC50 [1]: 1.6 nM | SI [1]: >63096 | CC50 [2]: > 100000 nM

Cc1cc(C)cc(Oc2c(CSCc3ccco3)c(C)[nH]c(=O)c2I)c1 [compound 375]
IC50 [1]: 1.3 nM | SI [1]: >79433 | CC50 [2]: > 100000 nM

CCc1c(C)[nH]c(=O)c(SC)c1Oc1cc(C)cc(C)c1 [compound 272]
IC50 [1]: 2 nM | SI [1]: 12589 | CC50 [2]: 25000 nM

Cc1cc(C)cc(Oc2c(CCCOCc3ccccc3)c(C)[nH]c(=O)c2I)c1 [compound 250]
IC50 [1]: 5 nM | SI [1]: 5012 | CC50 [2]: 25000 nM

Cc1cc(C)cc(Oc2c(CN3CCN(C(=O)c4ccco4)CC3)c(C)[nH]c(=O)c2I)c1 [compound 700]
IC50 [1]: 7.9 nM | SI [1]: >1000 | CC50 [2]: > 8000 nM

CCc1c(C)[nH]c(=O)c(OC)c1Oc1cc(C)cc(C)c1 [compound 277]
IC50 [1]: 2.5 nM | SI [1]: >39811 | CC50 [2]: > 100000 nM

CCc1c(C)[nH]c(=O)c(I)c1Oc1cccc(C)c1 [compound 306]
IC50 [1]: 1.6 nM | SI [1]: >19953 | CC50 [2]: > 32000 nM

CCc1c(C)[nH]c(=O)c(Sc2ccccc2)c1Oc1cc(C)cc(C)c1 [compound 280]
IC50 [1]: 10 nM | SI [1]: 2512 | CC50 [2]: 25000 nM

COc1ccccc1Cc1c(C)[nH]c(=O)c(I)c1Oc1cc(C)cc(C)c1 [compound 249]
IC50 [1]: 1.3 nM | SI [1]: >25119 | CC50 [2]: > 32000 nM

Cc1cc(C)cc(Oc2c(CSCc3ccccc3)c(C)[nH]c(=O)c2I)c1 [compound 92]
IC50 [1]: 6.3 nM | SI [1]: >5012 | CC50 [2]: > 32000 nM

Cc1cc(C)cc(Sc2c(CSCc3cccs3)c(C)[nH]c(=O)c2I)c1 [compound 8]
IC50 [1]: 10 nM | SI [1]: >10000 | CC50 [2]: > 100000 nM

COCCc1c(C)[nH]c(=O)c(I)c1Oc1cc(C)cc(C)c1 [compound 264]
IC50 [1]: 1 nM | SI [1]: >10000 | CC50 [2]: > 10000 nM

CCSCc1c(C)[nH]c(=O)c(I)c1Oc1cc(C)cc(C)c1 [compound 124]
IC50 [1]: 1.3 nM | SI [1]: >7943 | CC50 [2]: > 10000 nM

CCOCc1c[nH]c(=O)c(I)c1Oc1cc(C)cc(C)c1 [compound 256]
IC50 [1]: 2 nM | SI [1]: >5012 | CC50 [2]: > 10000 nM

CCOC(=O)CSCc1c(C)[nH]c(=O)c(I)c1Oc1cc(C)cc(C)c1 [compound 99]
IC50 [1]: 10 nM | SI [1]: >10000 | CC50 [2]: > 100000 nM

CCc1c(C)[nH]c(=O)c(I)c1Sc1cc(Cl)cc(Cl)c1 [compound 115]
IC50 [1]: 2.5 nM | SI [1]: 3162 | CC50 [2]: 8000 nM

CCOC(=O)NCc1c(C)[nH]c(=O)c(I)c1Oc1cc(C)cc(C)c1 [compound 218]
IC50 [1]: 7.9 nM | SI [1]: >1259 | CC50 [2]: > 10000 nM

Cc1cc(C)cc(Oc2c(CCO)c(C)[nH]c(=O)c2I)c1 [compound 241]
IC50 [1]: 1.6 nM | SI [1]: >63096 | CC50 [2]: > 100000 nM

CCc1c(C)[nH]c(=O)c(I)c1Oc1cccc(C=O)c1 [compound 321]
IC50 [1]: 6.3 nM | SI [1]: >15849 | CC50 [2]: > 100000 nM

C=Cc1cccc(Oc2c(CC)c(C)[nH]c(=O)c2I)c1 [compound 296]
IC50 [1]: 2 nM | SI [1]: 12589 | CC50 [2]: 25000 nM

CCc1c(C)[nH]c(=O)c(I)c1Oc1cc(C)cc(/C=C/C#N)c1 [compound 83]
IC50 [1]: 2.5 nM | SI [1]: 3162 | CC50 [2]: 8000 nM

Cc1cc(C)cc(Oc2c(CCCO)c(C)[nH]c(=O)c2I)c1 [compound 242]
IC50 [1]: 0.6 nM | SI [1]: >158489 | CC50 [2]: > 100000 nM

CON=Cc1c(C)[nH]c(=O)c(I)c1Sc1cc(C)cc(C)c1 [compound 46]
IC50 [1]: 2 nM | SI [1]: >50119 | CC50 [2]: > 100000 nM

CCc1c(COC(N)=O)[nH]c(=O)c(I)c1Oc1cc(C)cc(C)c1 [compound 105]
IC50 [1]: 2 nM | SI [1]: >5012 | CC50 [2]: > 10000 nM

CCc1c(C)[nH]c(=O)c(Br)c1Oc1cc(C)cc(C)c1 [compound 284]
IC50 [1]: 2 nM | SI [1]: >5012 | CC50 [2]: > 10000 nM

Cc1cccc(Sc2c3c([nH]c(=O)c2I)CCCCC3)c1 [compound 221]
IC50 [1]: 6.3 nM | SI [1]: >3162 | CC50 [2]: > 20000 nM

Cc1cc(C)cc(Sc2c(Cn3cccn3)c(C)[nH]c(=O)c2I)c1 [compound 589]
IC50 [1]: 1.3 nM | SI [1]: >7943 | CC50 [2]: > 10000 nM

CCc1c(C)[nH]c(=O)c(I)c1Oc1cccc([N+](=O)[O-])c1 [compound 297]
IC50 [1]: 4 nM | SI [1]: >7943 | CC50 [2]: > 32000 nM

Cc1cc(C)cc(Sc2c(Cn3ccnc3)c(C)[nH]c(=O)c2I)c1 [compound 606]
IC50 [1]: 1.3 nM | SI [1]: 15849 | CC50 [2]: 20000 nM

Cc1cc(C)cc(Oc2c(COCc3ccccc3)c(C)[nH]c(=O)c2I)c1 [compound 245]
IC50 [1]: 6.3 nM | SI [1]: >15849 | CC50 [2]: > 100000 nM

Cc1cc(C)cc(Oc2c(CNC=O)c(C)[nH]c(=O)c2I)c1 [compound 219]
IC50 [1]: 10 nM | SI [1]: >3162 | CC50 [2]: > 32000 nM

Cc1cc(C)cc(Sc2c(/C=N/OCc3ccccc3)c(C)[nH]c(=O)c2I)c1 [compound 31]
IC50 [1]: 7.9 nM | SI [1]: >12589 | CC50 [2]: > 100000 nM

Cc1cccc(Sc2c3c([nH]c(=O)c2I)CCCC3)c1 [compound 222]
IC50 [1]: 7.9 nM | SI [1]: 251 | CC50 [2]: 2000 nM

CCc1c(C)[nH]c(=O)c(I)c1Oc1cc(C)cc(CCl)c1 [compound 81]
IC50 [1]: 6.3 nM | SI [1]: 1995 | CC50 [2]: 13000 nM

CCc1c(C)[nH]c(=O)c(C(F)(F)F)c1Oc1cc(C)cc(C)c1 [compound 409]
IC50 [1]: 3.2 nM | SI [1]: 12589 | CC50 [2]: 40000 nM

CCc1c(C)[nH]c(=O)c(I)c1Oc1cccc(/C=C/C#N)c1 [compound 319]
IC50 [1]: 2 nM | SI [1]: >50119 | CC50 [2]: > 100000 nM

Cc1cc(C)cc(Oc2c(CNC(=O)c3cc4ccccc4o3)c(C)[nH]c(=O)c2I)c1 [compound 143]
IC50 [1]: 6.3 nM | SI [1]: >1585 | CC50 [2]: > 10000 nM

Cc1cc(C)cc(Oc2c(CN3CCN(c4ccccn4)CC3)c(C)[nH]c(=O)c2I)c1 [compound 696]
IC50 [1]: 15.8 nM | SI [1]: >2512 | CC50 [2]: > 40000 nM

Cc1cc(C)cc(Oc2c(COCc3ccsc3)c(C)[nH]c(=O)c2I)c1 [compound 244]
IC50 [1]: 4 nM | SI [1]: >25119 | CC50 [2]: > 100000 nM

CCc1c(C)[nH]c(=O)c(I)c1Oc1cccc(N)c1 [compound 121]
IC50 [1]: 10 nM | SI [1]: >10000 | CC50 [2]: > 100000 nM

CCc1c(C)[nH]c(=O)c(I)c1Oc1cccc(CO)c1 [compound 322]
IC50 [1]: 6.3 nM | SI [1]: >15849 | CC50 [2]: > 100000 nM

CC(=O)c1ccc(N2CCN(Cc3c(C)[nH]c(=O)c(I)c3Oc3cc(C)cc(C)c3)CC2)cc1 [compound 694]
IC50 [1]: 10 nM | CC50 [2]: 63000 nM

CCc1c(C)[nH]c(=O)c(Br)c1Sc1cc(C)cc(C)c1 [compound 109]
IC50 [1]: 2.5 nM | SI [1]: 12589 | CC50 [2]: 32000 nM

Cc1cc(C)cc(Oc2c(C=CC#N)c(C)[nH]c(=O)c2I)c1 [compound 140]
IC50 [1]: 6.3 nM | SI [1]: >1585 | CC50 [2]: > 10000 nM

Cc1cc(C)cc(Oc2c(Cn3ccnn3)c(C)[nH]c(=O)c2I)c1 [compound 713]
IC50 [1]: 2.5 nM | SI [1]: >39811 | CC50 [2]: > 100000 nM

Cc1cc(C)cc(Sc2c(Cn3cccc3)c(C)[nH]c(=O)c2I)c1 [compound 618]
IC50 [1]: 2 nM | SI [1]: 25119 | CC50 [2]: 50000 nM

CCc1c(CCCO)[nH]c(=O)c(I)c1Oc1cc(C)cc(C)c1 [compound 217]
IC50 [1]: 6.3 nM | SI [1]: >1585 | CC50 [2]: > 10000 nM

CCc1c(C)[nH]c(=O)c(C2CC2)c1Oc1cc(C)cc(C)c1 [compound 230]
IC50 [1]: 6.3 nM | SI [1]: 1259 | CC50 [2]: 8000 nM

CCc1c(C)[nH]c(=O)c(I)c1Oc1cccc(/C=C/C=C/C#N)c1 [compound 299]
IC50 [1]: 2.5 nM | SI [1]: 32

Cc1cc(C)cc(Oc2c(COCCO)c(C)[nH]c(=O)c2I)c1 [compound 254]
IC50 [1]: 2 nM | SI [1]: >15849 | CC50 [2]: > 32000 nM

CC(=O)N1CCN(Cc2c(C)[nH]c(=O)c(I)c2Oc2cc(C)cc(C)c2)CC1 [compound 701]
IC50 [1]: 10 nM | SI [1]: 6310 | CC50 [2]: 63000 nM

CCc1c(C)[nH]c(=O)c(I)c1Oc1cc(C)cc(/C=C/C#N)c1 [compound 551]
IC50 [1]: 1 nM | SI [1]: 12589 | CC50 [2]: 13000 nM

CCc1c[nH]c(=O)c(I)c1Oc1cccc(C)c1 [compound 314]
IC50 [1]: 7.9 nM | SI [1]: >3981 | CC50 [2]: > 32000 nM

CON=Cc1c(C)[nH]c(=O)c(I)c1Oc1cc(C)cc(C)c1 [compound 232]
IC50 [1]: 6.3 nM | SI [1]: >5012 | CC50 [2]: > 32000 nM

CCc1c(C)[nH]c(=O)c(I)c1Oc1cc(/C(C)=C/C#N)cc(/C(C)=C/C#N)c1 [compound 684]
IC50 [1]: 0.8 nM | SI [1]: >125893 | CC50 [2]: > 100000 nM

CCc1c(C)[nH]c(=O)c(I)c1Cc1cccc(C)c1 [compound 286]
IC50 [1]: 2.5 nM | SI [1]: >12589 | CC50 [2]: > 32000 nM

CCc1c(C)[nH]c(=O)c(I)c1Oc1cccc(C=CC=NO)c1 [compound 309]
IC50 [1]: 6.3 nM | SI [1]: 1585 | CC50 [2]: 10000 nM

CCOC(=O)c1c(Oc2cc(C)cc(C)c2)c(CC)c(C)[nH]c1=O [compound 324]
IC50 [1]: 5 nM | SI [1]: 6310 | CC50 [2]: 32000 nM

Cc1cc(C)cc(Oc2c(Cn3cncn3)c(C)[nH]c(=O)c2I)c1 [compound 574]
IC50 [1]: 2 nM | SI [1]: >50119 | CC50 [2]: > 100000 nM

CCc1c(C)[nH]c(=O)c(I)c1Oc1cccc(Br)c1 [compound 307]
IC50 [1]: 5 nM | SI [1]: >6310 | CC50 [2]: > 32000 nM

CCc1c(C)[nH]c(=O)c(I)c1Sc1cccc(C)c1 [compound 88]
IC50 [1]: 2.5 nM | SI [1]: >39811 | CC50 [2]: > 100000 nM
